Consider 2 compounds from US20120064531A1, “MODIFIED NUCLEOTIDE AND REAL-TIME POLYMERASE REACTION USING THE SAME” (Korea Institute of Science and Technology, priority 2010, published 2012).

Assay [1] relates to Therminator γ DNA polymerase. In words: Quantitative real-time PCR analysis (fluorescence after each cycle, Ct standard curve). The assay is classed as biochemical. The note with it: for Sensitivity (Required PCR cycles for 1 copy number: Y-intercept): real-time PCR standard curve, a lower value means more sensitivity; for (Efficiency, %) [100 × (10^(−1/slope) − 1)]: real-time PCR, template 10 nM to 10 fM, 40 cycles, Max = 100%. The method, then: Total of 40 cycles of PCR was performed, wherein each cycle consists of 94° C. for 10 sec, 54° C. for 15 sec, and 72° C. for 10 sec. After each cycle was completed, fluorescence intensity was measured in real time by using StepOne real-time PCR system (ABI). […] Ct (threshold cycle) value was set up by determining the point at which the threshold encounters the polymerization curve. […] Analysis was performed under the PCR conditions, the equipment and the method identical to that of <example 4>.
For orientation: Real-time PCR tracks product formation cycle by cycle.

A further assay has as its target T1, Taq DNA polymerase (Thermus aquaticus, UniProt P19821).
T1 construct: purchased New England Biolabs
In words: Primer extension reaction with PAGE to search for a DNA polymerase able to use γF-dGTP as a substrate. The assay is classed as biochemical. The note with it: γF-dGTP 25 uM instead of dGTP; 5 cycles 94/46/60° C.; 20% denaturing PAGE, FIG. 3. Here is the method: (§1) In order to search DNA polymerase, primer extension reaction was performed.
(§2) More specifically, the mixed reaction solution was heated by repeating five times a cycle consisting of 20 sec at 94° C., 40 sec at 46° C., and 90 sec at 60° C.
For a control group experiment, Taq DNA polymerase reaction was performed by using dGTP in a natural state instead of γF-dGTP under the same conditions mentioned above.
(§3) After each polymerase reaction, the mixed reaction solution was developed (Vertical Gel Electrophoresis Unit, Sigma-Aldrich) by using 20% denaturing polyacrylamide gel electrophoresis (PAGE). As a result, an image of DNA fluorescence band was obtained by using scanner (Typhoon9400, GE healthcare).

Another assay concerns the target Phi29 DNA polymerase (Bacillus phage phi29, UniProt P03680). The note with it: γF-dGTP 25 uM, 30° C. for 20 min, read every 20 sec; FIG. 6. The method, then:
Real-time RCA (rolling circle amplification) analysis was performed by using 20 ul of mixed reaction solution comprising the primer having SEQ ID: 6 (5′-[…], 100 nM), the template chain having SEQ ID: 7 (5′-[…] […], 100 nM), dATP (25 uM, Promega), dCTP (25 uM, Promega), dTTP (25 uM, Promega), γF-dGTP (25 uM), BSA (100 μg/mL), Phi29 DNA polymerase reaction buffer (New England Biolabs), and Phi29 DNA polymerase. (6 units) The reaction was performed at 30° C. for 20 min and fluorescence intensity at every 20 sec was measured by the equipment used in <example 4>.

In assay [2] the test system is Therminator γ DNA polymerase. In words: Primer extension reaction with PAGE to search for a DNA polymerase able to use γF-dGTP as a substrate. The assay is classed as biochemical. The conditions noted are these: γF-dGTP 25 uM instead of dGTP; 5 cycles 94/46/60° C.; 20% denaturing PAGE, FIG. 3. The method, then:
as §1, §2, §3

T1 sequence (P19821 whole entry): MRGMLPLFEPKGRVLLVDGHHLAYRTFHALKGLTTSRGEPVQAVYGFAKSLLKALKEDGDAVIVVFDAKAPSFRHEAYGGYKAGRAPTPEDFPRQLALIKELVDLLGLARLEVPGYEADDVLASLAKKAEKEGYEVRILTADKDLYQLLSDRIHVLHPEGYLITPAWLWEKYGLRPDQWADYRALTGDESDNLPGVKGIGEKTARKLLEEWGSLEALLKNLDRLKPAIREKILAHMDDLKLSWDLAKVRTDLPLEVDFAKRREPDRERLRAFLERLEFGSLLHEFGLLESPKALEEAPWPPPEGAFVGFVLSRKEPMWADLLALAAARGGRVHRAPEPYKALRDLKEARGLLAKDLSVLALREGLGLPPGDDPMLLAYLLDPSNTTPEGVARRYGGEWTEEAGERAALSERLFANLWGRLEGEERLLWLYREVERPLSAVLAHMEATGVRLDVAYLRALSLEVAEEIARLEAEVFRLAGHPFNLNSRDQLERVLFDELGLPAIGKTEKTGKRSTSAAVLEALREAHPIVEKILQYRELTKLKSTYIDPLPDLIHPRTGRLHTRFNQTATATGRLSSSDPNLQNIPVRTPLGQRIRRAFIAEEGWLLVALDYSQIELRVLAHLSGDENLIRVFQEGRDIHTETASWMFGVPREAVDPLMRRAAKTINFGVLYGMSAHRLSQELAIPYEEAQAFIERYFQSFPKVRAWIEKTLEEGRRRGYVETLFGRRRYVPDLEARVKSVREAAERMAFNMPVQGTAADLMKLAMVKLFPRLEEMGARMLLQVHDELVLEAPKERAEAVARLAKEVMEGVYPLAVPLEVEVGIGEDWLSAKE
Phi29 DNA polymerase, sequence (P03680 whole entry): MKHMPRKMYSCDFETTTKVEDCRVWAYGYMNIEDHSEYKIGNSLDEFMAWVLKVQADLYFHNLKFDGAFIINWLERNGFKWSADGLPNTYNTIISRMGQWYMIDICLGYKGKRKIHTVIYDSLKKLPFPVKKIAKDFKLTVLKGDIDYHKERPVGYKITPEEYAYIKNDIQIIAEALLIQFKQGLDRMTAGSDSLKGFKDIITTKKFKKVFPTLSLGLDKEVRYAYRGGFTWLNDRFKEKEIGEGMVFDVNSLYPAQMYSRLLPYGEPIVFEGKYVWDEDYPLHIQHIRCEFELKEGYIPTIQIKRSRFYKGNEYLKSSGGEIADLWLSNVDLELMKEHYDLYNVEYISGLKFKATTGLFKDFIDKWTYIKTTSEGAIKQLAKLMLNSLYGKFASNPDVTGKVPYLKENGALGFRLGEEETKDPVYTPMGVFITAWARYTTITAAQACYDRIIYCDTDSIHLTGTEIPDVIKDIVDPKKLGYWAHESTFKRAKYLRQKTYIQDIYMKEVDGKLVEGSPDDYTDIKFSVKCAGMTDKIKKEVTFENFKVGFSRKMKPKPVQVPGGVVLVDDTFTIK

For the compound `CC1=CC(C)=[N+]2C1=Cc1ccc(CCC(=O)NCCNP(=O)(O)OP(=O)(O)OP(=O)(O)OC[C@H]3O[C@@H](n4cnc5c(=O)[nH]c(N)nc54)C[C@@H]3O)n1[B-]2(F)F` [γF-dGTP], in assay [1], the “Sensitivity (Required PCR cycles for 1 copy number: Y-intercept)” value is recorded as 41.5 and the “(Efficiency, %) [100 × (10^(−1/slope) − 1)]” value was found to be 93.4%. Also, the “Use as a substrate by the polymerase (fully extended polymerization product on PAGE)” value at Taq DNA polymerase is “can use the modified nucleotide as a substrate”. In addition, the “Fluorescence intensity during real-time RCA” value at Phi29 DNA polymerase is “fluorescence intensity increases”. Also, the “Use as a substrate by the polymerase (fully extended polymerization product on PAGE)” value in assay [2] was “can use the modified nucleotide as a substrate”.
`CCCN(CCCN(C)C)c1cc(/C=C2/Sc3ccccc3N2C)c2ccccc2[n+]1-c1ccccc1` [SYBR green I, reference compound]: in assay [1], the “Sensitivity (Required PCR cycles for 1 copy number: Y-intercept)” value came out at 47.2 and the “(Efficiency, %) [100 × (10^(−1/slope) − 1)]” value amounted to 80.5%.
